pEC50: −log10 of the molar value.
System: NL-RLuc virus
Assay: Inhibition of HIV replication (NL-RLuc virus, luciferase readout in MT-2 cells)
Type: cell-based
Conditions: Human immunodeficiency virus 1, MT2, 120 h, MT-2 cells infected with NL-RLuc virus, 5 days of incubation, 10% FBS, at least 2 experiments
Method in brief: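 MT-2 cells infected with NL4-3-derived virus carrying Renilla luciferase in place of part of nef, grown 5 days with serial compound dilutions in RPMI 1640/10% FBS. Virus growth read as luciferase expression. EC50 from median effect equation, at least 2 experiments.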

Going from `Cc1ncc(-c2cccc(Cl)c2)c(N2CCC(C)(C)CC2)c1[C@H](OC(C)(C)C)C(=O)O` [Example 143, (2S)-2-(tert-Butoxy)-2-[5-(3-chlorophenyl)-4-(4,4-dimethylpiperidin-1-yl)-2-methylpyridin-3-yl]acetic acid] to `Cc1ncc(-c2cccc(-c3cccc(Cl)c3)c2)c(N2CCC(C)(C)CC2)c1[C@H](OC(C)(C)C)C(=O)O` [Example 144, (2S)-2-(tert-butoxy)-2-(5-{3′-chloro-[1,1′-biphenyl]-3-yl}-4-(4,4-dimethylpiperidin-1-yl)-2-methylpyridin-3-yl)acetic acid], the pEC50 falls from 8.40 to 7.11 (1.29 log units).

Compared with `COc1ccc(-c2cnc(C)c([C@H](OC(C)(C)C)C(=O)O)c2N2CCC(C)(C)CC2)cc1C` [Example 178, (2S)-2-(tert-Butoxy)-2-[4-(4,4-dimethylpiperidin-1-yl)-5-(4-methoxy-3-methylphenyl)-2-methylpyridin-3-yl]acetic acid], `COc1cc(-c2cnc(C)c([C@H](OC(C)(C)C)C(=O)O)c2N2CCC(C)(C)CC2)ccn1` [Example 164, (2S)-2-(tert-Butoxy)-2-[4-(4,4-dimethylpiperidin-1-yl)-2′-methoxy-6-methyl-[3, 4′-bipyridine]-5-yl]acetic acid] is 0.30 log units lower in pEC50: 8.70 for the first, 8.40 for the second. The first is the more potent here.

`Cc1ncc(-c2ccc(OCCc3cccc(Cl)c3)cn2)c(N2CCC(C)(C)CC2)c1[C@H](OC(C)(C)C)C(=O)O` [Example 308, (2S)-2-(tert-butoxy)-2-{5-[2-(3-chlorophenyl)ethoxy]-4′-(4,4-dimethylpiperidin-1-yl)-6′-methyl-[2,3′-bipyridine]-5′-yl}acetic acid] and `Cc1ncc(-c2ccc(OCc3ccccc3)cn2)c(N2CCC(C)(C)CC2)c1[C@H](OC(C)(C)C)C(=O)O` [Example 288, (S)-2-(5-(Benzyloxy)-4′-(4,4-dimethylpiperidin-1-yl)-6′-methyl-[2, 3′-bipyridin]-5′-yl)-2-(tert-butoxy)acetic acid] are within 0.2 log units of each other in pEC50: 9.15 for the first, 9.00 for the second.

`Cc1nc(NCCN2CCN(C)CC2)c(-c2ccc(OCCc3ccc(F)cc3)cc2)c(N2CCC(C)(C)CC2)c1[C@H](OC(C)(C)C)C(=O)O` [Example 43, (S)-2-(tert-Butoxy)-2-(4-(4,4-dimethylpiperidin-1-yl)-5-(4-(4-fluorophenethoxy)phenyl)-2-methyl-6-((2-(4-methylpiperazin-1-yl)ethyl)amino)pyridin-3-yl)acetic acid] and `Cc1nc(NC2CCN(C)CC2)c(-c2ccc(OCCc3ccc(F)cc3)cc2)c(N2CCC(C)(C)CC2)c1[C@H](OC(C)(C)C)C(=O)O` [Example 25, (S)-2-(tert-Butoxy)-2-(4-(4,4-dimethylpiperidin-1-yl)-5-(4-(4-fluorophenethoxy)phenyl)-2-methyl-6-((1-methylpiperidin-4-yl)amino)pyridin-3-yl)acetic acid] are within 0.2 log units of each other in pEC50: 9.22 for the first, 9.10 for the second.

Compared with `Cc1ncc(-c2ccccc2C(N)=O)c(N2CCC(C)(C)CC2)c1[C@H](OC(C)(C)C)C(=O)O` [Example 154, (2S)-2-(tert-butoxy)-2-[5-(2-carbamoylphenyl)-4-(4,4-dimethylpiperidin-1-yl)-2-methylpyridin-3-yl]acetic acid], `Cc1ncc(-c2ncc3ccccc3n2)c(N2CCC(C)(C)CC2)c1[C@H](OC(C)(C)C)C(=O)O` [Example 267, (S)-2-(tert-Butoxy)-2-(4-(4,4-dimethylpiperidin-1-yl)-2-methyl-5-(quinazolin-2-yl)pyridin-3-yl)acetic acid] is 0.77 log units higher in pEC50: 7.28 for the first, 8.05 for the second. The second is the more potent here.

First: Cc1ccc(Nc2nc(C)c([C@H](OC(C)(C)C)C(=O)O)c(N3CCC(C)(C)CC3)c2-c2ccc(OCCc3ccc(F)cc3)cc2)nc1 [Example 78, (S)-2-(tert-Butoxy)-2-(4-(4,4-dimethylpiperidin-1-yl)-5-(4-(4-fluorophenethoxy)phenyl)-2-methyl-6-((5-methylpyridin-2-yl)amino)pyridin-3-yl)acetic acid]
Second: Cc1nc(NC2CC2)c(-c2ccc(OCCc3ccc(F)cc3)cc2)c(N2CCC(C)(C)CC2)c1[C@H](OC(C)(C)C)C(=O)O [Example 106, (S)-2-(tert-Butoxy)-2-(6-(cyclopropylamino)-4-(4,4-dimethylpiperidin-1-yl)-5-(4-(4-fluorophenethoxy)phenyl)-2-methylpyridin-3-yl)acetic acid]
The pEC50 of the first is 0.78 log units lower: 8.22 for the first, 9.00 for the second.

First: Cc1nc(N)c(-c2cc(F)c(OCCc3ccc(F)cc3)c(F)c2)c(N2CCC(C)(C)CC2)c1[C@H](OC(C)(C)C)C(=O)O [Example 60, (S)-2-(6-Amino-5-(3,5-difluoro-4-(4-fluorophenethoxy)phenyl)-4-(4,4-dimethylpiperidin-1-yl)-2-methylpyridin-3-yl)-2-(tert-butoxy)acetic acid]
Second: Cc1nc(C(N)=O)c(-c2ccc(OCCc3ccc(F)cc3)cc2)c(N2CCC(C)(C)CC2)c1[C@H](OC(C)(C)C)C(=O)O [Example 13, (S)-2-(tert-Butoxy)-2-(6-carbamoyl-4-(4,4-dimethylpiperidin-1-yl)-5-(4-(4-fluorophenethoxy)phenyl)-2-methylpyridin-3-yl)acetic acid]
The pEC50 of the first is 0.40 log units lower: 7.60 for the first, 8.00 for the second. The second is the more potent here.

First: Cc1ncc(-c2ccc(OCCc3ccccc3)c(F)c2)c(N2CCC(C)(C)CC2)c1[C@H](OC(C)(C)C)C(=O)O [Example 258, (S)-2-(tert-Butoxy)-2-(4-(4,4-dimethylpiperidin-1-yl)-5-(3-fluoro-4-phenethoxyphenyl)-2-methylpyridin-3-yl)acetic acid]
Second: Cc1cccc(CCOc2ccc(-c3cnc(C)c([C@H](OC(C)(C)C)C(=O)O)c3N3CCC(C)(C)CC3)cc2)c1 [Example 365, (2S)-2-(tert-butoxy)-2-[4-(4,4-dimethylpiperidin-1-yl)-2-methyl-5-{4-[2-(3-methylphenyl)ethoxy]phenyl}pyridin-3-yl]acetic acid]
The pEC50 of the first is 0.30 log units higher: 9.00 for the first, 8.70 for the second. The first is the more potent here.

Compared with `Cc1ncc(-c2cnc(OCCc3cccc(F)c3)c(F)c2)c(N2CCC(C)(C)CC2)c1[C@H](OC(C)(C)C)C(=O)O` [Example 119, (S)-2-(tert-Butoxy)-2-(4-(4,4-dimethylpiperidin-1-yl)-5′-fluoro-6′-(3-fluorophenethoxy)-6-methyl-[3, 3′-bipyridin]-5-yl)acetic acid], `Cc1ncc(-c2cnc(OCCc3ccc(F)c(Cl)c3)c(F)c2)c(N2CCC(C)(C)CC2)c1[C@H](OC(C)(C)C)C(=O)O` [Example 403, (2S)-2-(tert-butoxy)-2-{6′-[2-(3-chloro-4-fluorophenyl)ethoxy]-4-(4,4-dimethylpiperidin-1-yl)-5′-fluoro-6-methyl-[3,3′-bipyridine]-5-yl}acetic acid] is 0.30 log units lower in pEC50: 9.00 for the first, 8.70 for the second. The first is the more potent here.

Going from `Cc1nc(OCC(C)C)ccc1-c1cnc(C)c([C@H](OC(C)(C)C)C(=O)O)c1N1CCC(C)(C)CC1` [Example 418, (S)-2-(tert-Butoxy)-2-(4-(4,4-dimethylpiperidin-1-yl)-6′-isobutoxy-2′,6-dimethyl-[3, 3′-bipyridin]-5-yl)acetic acid] to `Cc1ccc(-c2cnc(C)c([C@H](OC(C)(C)C)C(=O)O)c2N2CCC(C)(C)CC2)nc1` [Example 185, (2S)-2-(tert-Butoxy)-2-[4′-(4,4-dimethylpiperidin-1-yl)-5,6′-dimethyl-[2, 3′-bipyridine]-5′-yl]acetic acid], the pEC50 rises from 6.97 to 7.96 (0.99 log units).

First: Cc1nc(Nc2ccnnc2)c(-c2ccc(OCCc3ccc(F)cc3)c(F)c2)c(N2CCC(C)(C)CC2)c1[C@H](OC(C)(C)C)C(=O)O [Example 74, (S)-2-(tert-Butoxy)-2-(4-(4,4-dimethylpiperidin-1-yl)-5-(3-fluoro-4-(4-fluorophenethoxy)phenyl)-2-methyl-6-(pyridazin-4-ylamino)pyridin-3-yl)acetic acid]
Second: Cc1nc(C(N)=O)c([C@H](OC(C)(C)C)C(=O)O)c(N2CCC(C)(C)CC2)c1-c1ccc(OCCc2ccc(F)cc2)cc1 [Example 6, (S)-2-(tert-Butoxy)-2-(2-carbamoyl-4-(4,4-dimethylpiperidin-1-yl)-5-(4-(4-fluorophenethoxy)phenyl)-6-methylpyridin-3-yl)acetic acid]
The pEC50 of the first is 0.85 log units higher: 8.70 for the first, 7.85 for the second. The first is the more potent here.

`Cc1ncc(-c2ccc(OCc3ccc(F)cc3)cn2)c(N2CCC(C)(C)CC2)c1[C@H](OC(C)(C)C)C(=O)O` [Example 344, (2S)-2-(tert-butoxy)-2-[4′-(4,4-dimethylpiperidin-1-yl)-5-[(4-fluorophenyl)methoxy]-6′-methyl-[2,3′-bipyridine]-5′-yl]acetic acid] and `Cc1ncc(-c2ccc(COc3ccccc3)cn2)c(N2CCC(C)(C)CC2)c1[C@H](OC(C)(C)C)C(=O)O` [Example 272, (S)-2-(tert-Butoxy)-2-(4′-(4,4-dimethylpiperidin-1-yl)-6′-methyl-5-(phenoxymethyl)-[2, 3′-bipyridin]-5′-yl)acetic acid] are the same in pEC50: 8.70 for the first, 8.70 for the second.

Going from `Cc1nc(C(=O)N2CCS(=O)(=O)CC2)c(-c2ccc(OCCc3ccc(F)cc3)cc2)c(N2CCC(C)(C)CC2)c1[C@H](OC(C)(C)C)C(=O)O` [Example 10, (S)-2-(tert-Butoxy)-2-(4-(4,4-dimethylpiperidin-1-yl)-6-(1,1-dioxidothiomorpholine-4-carbonyl)-5-(4-(4-fluorophenethoxy)phenyl)-2-methylpyridin-3-yl)acetic acid] to `COc1ccc(CCOc2ncc(-c3cnc(C)c([C@H](OC(C)(C)C)C(=O)O)c3N3CCC(C)(C)CC3)cc2F)cc1` [Example 374, (2S)-2-(tert-butoxy)-2-[4-(4,4-dimethylpiperidin-1-yl)-5′-fluoro-6′-[2-(4-methoxyphenyl)ethoxy]-6-methyl-[3,3′-bipyridine]-5-yl]acetic acid], the pEC50 rises from 7.51 to 9.52 (2.01 log units).

Compared with `CC1(C)CCN(c2c(-c3ccc(F)c(F)c3)c(CN3CCC4(CCC4)CC3)nc(Cl)c2[C@H](OC(C)(C)C)C(=O)O)CC1` [Example 207, (S)-2-(6-((7-Azaspiro[3.5]nonan-7-yl)methyl)-2-chloro-5-(3,4-difluorophenyl)-4-(4,4-dimethylpiperidin-1-yl)pyridin-3-yl)-2-(tert-butoxy)acetic acid], `Cc1ncc(-c2cnc(OCCc3ccc(F)cc3)cn2)c(N2CCC(C)(C)CC2)c1[C@H](OC(C)(C)C)C(=O)O` [Example 16, (S)-2-(tert-Butoxy)-2-(4-(4,4-dimethylpiperidin-1-yl)-5-(5-(4-fluorophenethoxy)pyrazin-2-yl)-2-methylpyridin-3-yl)acetic acid] is 1.26 log units higher in pEC50: 7.44 for the first, 8.70 for the second. The second is the more potent here.

— US20200055839A1 (priority 2017, published 2020)
